Literature values as cited in publication PMC7062412 (Drug Design, Development and Therapy, 2020).

Legend:
ET-1 = settings: overall animals, isolated organs, cells and subcells

Structure (SMILES): O=C(O)/C=C/c1ccc(O)c(O)c1 [Caffeic Acid, caffeic acid]
- half-life in the body: 30 to 60 min
- antagonistic biological effect on ET-1 (ET-1): had an antagonistic biological effect on ET-1
